According to patent US20230085307A1, “PYRIDAZINONE COMPOUND AND HERBICIDE” (NISSAN CHEMICAL CORPORATION, priority 2019, published 2023):

Tests used:
southern crabgrass [1] = assay: Test Example 4: herbicidal effect by soil treatment (Table 19, symbol F); type: in vivo, southern crabgrass (Digitaria ciliaris); details: amount of applied herbicide 320 g/ha
How it was run: (§1)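 Three weeks of greenhouse growth at 25° C. to 30° C. followed a uniform surface spray of water-diluted emulsion at a predetermined herbicide amount. Seeds had been sown beforehand under about 1.5 cm of sterilized diluvial soil. Grading followed criteria set out in an earlier test.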

lambsquarters [2] = assay: Test Example 4: herbicidal effect by soil treatment (Table 19, symbol O); type: in vivo, lambsquarters (Chenopodium album); details: amount of applied herbicide 320 g/ha
How it was run: as §1

Chinese sprangletop = assay: Test Example 3: herbicidal effect by foliage application, Wagner pot (Table 18, symbol D); type: in vivo, chinese sprangletop (Leptochloa chinensis); details: 320 g/ha
How it was run: (§2)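 Plants were sown in alluvial soil held under 0.1–0.5 cm standing water and grown 14 days in a greenhouse at 25–30 °C. An emulsifiable formulation, water-diluted to the set dose, was then sprayed onto the foliage, and effects were scored three weeks later using previously defined criteria.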

green foxtail [3] = assay: Test Example 5: herbicidal effect by foliage application, plastic box (Table 20, symbol G); type: in vivo, green foxtail (Setaria viridis); details: amount of applied herbicide 320 g/ha; foliage application after 14-day growth; evaluated three weeks after application
How it was run: (§3)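 Plants sown in sterilized diluvial soil and grown 14 days in a greenhouse at 25° C to 30° C, then sprayed on the foliage with the compound's emulsion diluted in water to a predetermined herbicide amount. Injury to weeds and crops scored three weeks after application on a visual rating scale.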

velvetleaf [4] = assay: Test Example 5: herbicidal effect by foliage application, plastic box (Table 20, symbol M); type: in vivo, velvetleaf (Abutilon theophrasti); details: amount of applied herbicide 320 g/ha; foliage application after 14-day growth; evaluated three weeks after application
How it was run: as §3

oval-leafed pondweed = assay: Test Example 1: herbicidal activity, application before weed generation under submerged conditions (Table 16, symbol C); type: in vivo, oval-leafed pondweed (Monochoria vaginalis); details: amount of applied herbicide 320 g/ha
How it was run: (§4)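 Emulsion formulation, water-diluted to set dose, was put onto the flooded surface (4 cm depth, alluvial soil) the same day weeds were sown and 2.5-leaf rice transplanted. After 3 weeks at 25-30 °C under glass, each species was rated 0 (≤5% kill) to 5 (≥90% kill).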

redroot pigweed [5] = assay: Test Example 4: herbicidal effect by soil treatment (Table 19, symbol N); type: in vivo, redroot pigweed (Amaranthus retroflexus); details: amount of applied herbicide 320 g/ha
How it was run: as §1

redroot pigweed [6] = assay: Test Example 5: herbicidal effect by foliage application, plastic box (Table 20, symbol N); type: in vivo, redroot pigweed (Amaranthus retroflexus); details: amount of applied herbicide 320 g/ha; foliage application after 14-day growth; evaluated three weeks after application
How it was run: as §3

velvetleaf [7] = assay: Test Example 4: herbicidal effect by soil treatment (Table 19, symbol M); type: in vivo, velvetleaf (Abutilon theophrasti); details: amount of applied herbicide 320 g/ha
How it was run: as §1

chickweed [8] = assay: Test Example 5: herbicidal effect by foliage application, plastic box (Table 20, symbol P); type: in vivo, common chickweed (Stellaria media); details: amount of applied herbicide 320 g/ha; foliage application after 14-day growth; evaluated three weeks after application
How it was run: as §3

southern crabgrass [9] = assay: Test Example 5: herbicidal effect by foliage application, plastic box (Table 20, symbol F); type: in vivo, southern crabgrass (Digitaria ciliaris); details: amount of applied herbicide 320 g/ha; foliage application after 14-day growth; evaluated three weeks after application
How it was run: as §3

Italian ryegrass [10] = assay: Test Example 4: herbicidal effect by soil treatment (Table 19, symbol K); type: in vivo, Italian ryegrass (Lolium multiflorum); details: amount of applied herbicide 320 g/ha
How it was run: as §1

blackgrass [11] = assay: Test Example 4: herbicidal effect by soil treatment (Table 19, symbol J); type: in vivo, blackgrass (Alopecurus myosuroides); details: amount of applied herbicide 320 g/ha
How it was run: as §1

green foxtail [12] = assay: Test Example 4: herbicidal effect by soil treatment (Table 19, symbol G); type: in vivo, green foxtail (Setaria viridis); details: amount of applied herbicide 320 g/ha
How it was run: as §1

late watergrass = assay: Test Example 1: herbicidal activity, application before weed generation under submerged conditions (Table 16, symbol A); type: in vivo, late watergrass (Echinochloa oryzicola); details: amount of applied herbicide 320 g/ha
How it was run: as §4

blackgrass [13] = assay: Test Example 5: herbicidal effect by foliage application, plastic box (Table 20, symbol J); type: in vivo, blackgrass (Alopecurus myosuroides); details: amount of applied herbicide 320 g/ha; foliage application after 14-day growth; evaluated three weeks after application
How it was run: as §3

wild oat [14] = assay: Test Example 4: herbicidal effect by soil treatment (Table 19, symbol I); type: in vivo, wild oat (Avena fatua); details: amount of applied herbicide 320 g/ha
How it was run: as §1

rice flat sedge = assay: Test Example 3: herbicidal effect by foliage application, Wagner pot (Table 18, symbol E); type: in vivo, rice flat sedge (Cyperus iria); details: 320 g/ha
How it was run: as §2

barnyard grass [15] = assay: Test Example 4: herbicidal effect by soil treatment (Table 19, symbol H); type: in vivo, barnyard grass (Echinochloa crus-galli); details: amount of applied herbicide 320 g/ha
How it was run: as §1

Japanese bulrush = assay: Test Example 1: herbicidal activity, application before weed generation under submerged conditions (Table 16, symbol B); type: in vivo, Japanese bulrush (Schoenoplectus juncoides); details: amount of applied herbicide 320 g/ha
How it was run: as §4

lambsquarters [16] = assay: Test Example 5: herbicidal effect by foliage application, plastic box (Table 20, symbol O); type: in vivo, lambsquarters (Chenopodium album); details: amount of applied herbicide 320 g/ha; foliage application after 14-day growth; evaluated three weeks after application
How it was run: as §3

Italian ryegrass [17] = assay: Test Example 5: herbicidal effect by foliage application, plastic box (Table 20, symbol K); type: in vivo, Italian ryegrass (Lolium multiflorum); details: amount of applied herbicide 320 g/ha; foliage application after 14-day growth; evaluated three weeks after application
How it was run: as §3

persian speedwell = assay: Test Example 5: herbicidal effect by foliage application, plastic box (Table 20, symbol R); type: in vivo, Persian speedwell (Veronica persica); details: amount of applied herbicide 320 g/ha; foliage application after 14-day growth; evaluated three weeks after application
How it was run: as §3

chickweed [18] = assay: Test Example 4: herbicidal effect by soil treatment (Table 19, symbol P); type: in vivo, common chickweed (Stellaria media); details: amount of applied herbicide 320 g/ha
How it was run: as §1

wild oat [19] = assay: Test Example 5: herbicidal effect by foliage application, plastic box (Table 20, symbol I); type: in vivo, wild oat (Avena fatua); details: amount of applied herbicide 320 g/ha; foliage application after 14-day growth; evaluated three weeks after application
How it was run: as §3

windgrass [20] = assay: Test Example 5: herbicidal effect by foliage application, plastic box (Table 20, symbol L); type: in vivo, windgrass (Apera spica-venti); details: amount of applied herbicide 320 g/ha; foliage application after 14-day growth; evaluated three weeks after application
How it was run: as §3

windgrass [21] = assay: Test Example 4: herbicidal effect by soil treatment (Table 19, symbol L); type: in vivo, windgrass (Apera spica-venti); details: amount of applied herbicide 320 g/ha
How it was run: as §1

barnyard grass [22] = assay: Test Example 5: herbicidal effect by foliage application, plastic box (Table 20, symbol H); type: in vivo, barnyard grass (Echinochloa crus-galli); details: amount of applied herbicide 320 g/ha; foliage application after 14-day growth; evaluated three weeks after application
How it was run: as §3

barnyard grass [23] = assay: Test Example 3: herbicidal effect by foliage application, Wagner pot (Table 18, symbol H); type: in vivo, barnyard grass (Echinochloa crus-galli); details: 320 g/ha
How it was run: as §2

SMILES	herbicidal effect on Chinese sprangletop (D) (Chinese sprangletop)	Herbicidal effect by foliage application, G: green foxtail (green foxtail [3])	Herbicidal effect by foliage application, M: velvetleaf (velvetleaf [4])	Herbicidal effect, C: oval-leafed pondweed (oval-leafed pondweed)	Herbicidal effect by foliage application, N: redroot pigweed (redroot pigweed [6])	Herbicidal effect by foliage application, P: chickweed (chickweed [8])	Herbicidal effect by foliage application, F: southern crabgrass (southern crabgrass [9])	Herbicidal effect, A: late watergrass (late watergrass)	Herbicidal effect by foliage application, J: blackgrass (blackgrass [13])	herbicidal effect on rice flat sedge (E) (rice flat sedge)	Herbicidal effect, B: Japanese bulrush (Japanese bulrush)	Herbicidal effect by foliage application, O: lambsquarters (lambsquarters [16])	Herbicidal effect by foliage application, K: Italian ryegrass (Italian ryegrass [17])	Herbicidal effect by foliage application, R: persian speedwell (persian speedwell)	Herbicidal effect by foliage application, I: wild oat (wild oat [19])	Herbicidal effect by foliage application, L: windgrass (windgrass [20])	Herbicidal effect by foliage application, H: barnyard grass (barnyard grass [22])	herbicidal effect on barnyard grass (H) (barnyard grass [23])	other results
Cc1nn(C)c(=O)c(-c2c(-c3ccc(F)cc3)sc3c(C)cccc23)c1O [4-100]	0 (Herbicidal rate of 5% or less (almost no effect))	0 (Herbicidal rate of 5% or less (almost no effect))	5 (Herbicidal rate of 90% or more (almost completely withered))	1 (Herbicidal rate of 5% or more and less than 20%)	4 (Herbicidal rate of 70% or more and less than 90%)	5 (Herbicidal rate of 90% or more (almost completely withered))	0 (Herbicidal rate of 5% or less (almost no effect))	3 (Herbicidal rate of 40% or more and less than 70%)	3 (Herbicidal rate of 40% or more and less than 70%)	0 (Herbicidal rate of 5% or less (almost no effect))	3 (Herbicidal rate of 40% or more and less than 70%)	5 (Herbicidal rate of 90% or more (almost completely withered))	3 (Herbicidal rate of 40% or more and less than 70%)	5 (Herbicidal rate of 90% or more (almost completely withered))	0 (Herbicidal rate of 5% or less (almost no effect))	1 (Herbicidal rate of 5% or more and less than 20%)	0 (Herbicidal rate of 5% or less (almost no effect))	2 (Herbicidal rate of 20% or more and less than 40%)	Herbicidal effect by soil treatment, F: southern crabgrass (southern crabgrass [1]): 0 (Herbicidal rate of 5% or less (almost no effect)); Herbicidal effect by soil treatment, O: lambsquarters (lambsquarters [2]): 4 (Herbicidal rate of 70% or more and less than 90%); Herbicidal effect by soil treatment, N: redroot pigweed (redroot pigweed [5]): 3 (Herbicidal rate of 40% or more and less than 70%); Herbicidal effect by soil treatment, M: velvetleaf (velvetleaf [7]): 3 (Herbicidal rate of 40% or more and less than 70%); Herbicidal effect by soil treatment, K: Italian ryegrass (Italian ryegrass [10]): 0 (Herbicidal rate of 5% or less (almost no effect)); Herbicidal effect by soil treatment, J: blackgrass (blackgrass [11]): 0 (Herbicidal rate of 5% or less (almost no effect)); Herbicidal effect by soil treatment, G: green foxtail (green foxtail [12]): 1 (Herbicidal rate of 5% or more and less than 20%); Herbicidal effect by soil treatment, I: wild oat (wild oat [14]): 0 (Herbicidal rate of 5% or less (almost no effect)); Herbicidal effect by soil treatment, H: barnyard grass (barnyard grass [15]): 0 (Herbicidal rate of 5% or less (almost no effect)); Herbicidal effect by soil treatment, P: chickweed (chickweed [18]): 3 (Herbicidal rate of 40% or more and less than 70%); Herbicidal effect by soil treatment, L: windgrass (windgrass [21]): 0 (Herbicidal rate of 5% or less (almost no effect))
CCCC(=O)Oc1c(C)nn(C)c(=O)c1-c1c(-c2ccc3c(c2)OCCO3)sc2cc(F)c(F)cc12 [5-038]	2 (Herbicidal rate of 20% or more and less than 40%)	0 (Herbicidal rate of 5% or less (almost no effect))	3 (Herbicidal rate of 40% or more and less than 70%)	4 (Herbicidal rate of 70% or more and less than 90%)	2 (Herbicidal rate of 20% or more and less than 40%)	5 (Herbicidal rate of 90% or more (almost completely withered))	0 (Herbicidal rate of 5% or less (almost no effect))	4 (Herbicidal rate of 70% or more and less than 90%)	0 (Herbicidal rate of 5% or less (almost no effect))	4 (Herbicidal rate of 70% or more and less than 90%)	3 (Herbicidal rate of 40% or more and less than 70%)	1 (Herbicidal rate of 5% or more and less than 20%)	0 (Herbicidal rate of 5% or less (almost no effect))	5 (Herbicidal rate of 90% or more (almost completely withered))	0 (Herbicidal rate of 5% or less (almost no effect))	0 (Herbicidal rate of 5% or less (almost no effect))	0 (Herbicidal rate of 5% or less (almost no effect))	2 (Herbicidal rate of 20% or more and less than 40%)	F: southern crabgrass, herbicidal effect grade (southern crabgrass [1]): 0 (Herbicidal rate of 5% or less (almost no effect)); O: lambsquarters, herbicidal effect grade (lambsquarters [2]): 4 (Herbicidal rate of 70% or more and less than 90%); N: redroot pigweed, herbicidal effect grade (redroot pigweed [5]): 2 (Herbicidal rate of 20% or more and less than 40%); M: velvetleaf, herbicidal effect grade (velvetleaf [7]): 0 (Herbicidal rate of 5% or less (almost no effect)); K: Italian ryegrass, herbicidal effect grade (Italian ryegrass [10]): 0 (Herbicidal rate of 5% or less (almost no effect)); J: blackgrass, herbicidal effect grade (blackgrass [11]): 0 (Herbicidal rate of 5% or less (almost no effect)); G: green foxtail, herbicidal effect grade (green foxtail [12]): 0 (Herbicidal rate of 5% or less (almost no effect)); I: wild oat, herbicidal effect grade (wild oat [14]): 0 (Herbicidal rate of 5% or less (almost no effect)); H: barnyard grass, herbicidal effect grade (barnyard grass [15]): 0 (Herbicidal rate of 5% or less (almost no effect)); P: chickweed, herbicidal effect grade (chickweed [18]): 0 (Herbicidal rate of 5% or less (almost no effect)); L: windgrass, herbicidal effect grade (windgrass [21]): 0 (Herbicidal rate of 5% or less (almost no effect))
